From patent US20230030886A1, “CHEMOTHERAPEUTIC DRUG IMPLANT” (EXTRUDED PHARMACEUTICALS LTD, priority 2019, published 2023)

Tested on: primary GBM cells taken from eight patients with recurrent GBM
Assay: GBM cell cytotoxicity of IRN, TMZ and IRN+PVT, increasing concentrations, 5 days (MTT)
Assay type: cell-based, human
Procedure: TMZ, IRN and IRN+PVT were added at increasing concentrations up to 5 log nm to cultured primary GBM cells taken from eight patients with recurrent GBM. After 5 days of exposure an MTT assay was performed to assess % cell viability.

SMILES: CCc1c2c(nc3ccc(OC(=O)N4CCC(N5CCCCC5)CC4)cc13)-c1cc3c(c(=O)n1C2)COC(=O)[C@]3(O)CC [IRN, irinotecan]
- IC50 (Homo sapiens, 120 h, determined from FIG. 23, 5 days exposure, eight patient lines): 3.16 µM
- response of the eight patient cell lines to treatment (up to 5 log nm, 5 days of exposure): Six of the eight patient cell lines responded
